Data taken from article PMC11770821, “Pharmacokinetics and pharmacodynamics of an innovative psychedelic N,N-dimethyltryptamine/harmine formulation in healthy participants: a randomized controlled trial” (International Journal of Neuropsychopharmacology, 2025).

Test: Plasma pharmacokinetics of DMT, harmine and their metabolites (non-compartmental analysis)
Conditions: DMT + harmine condition, mean (SD)
Experimental: The study was conducted as a within-subject, double-blind, randomized placebo-controlled trial. Randomization was performed by an independent individual using a computer-generated random number sequence. All participants underwent 3 randomized drug treatments on separate study days, with an intervening washout period of at least 2 weeks: (1) DMT/HAR: harmine hydrochloride (HCl; 100 mg; buccal orodispersible tablet; ODT) plus DMT (as hemifumarate; 100 mg; intranasal: 10 mg every 15 minutes over 150 minutes), (2) HAR/PLA: harmine (100 mg, buccal ODT) plus placebo nasal spray (NaCl; at same dosing intervals), and (3) PLA/PLA: placebo buccal ODT plus placebo nasal spray. In all conditions, buccal tablets were premedicated for 30 minutes. Food or water intake was not allowed 2 hours before drug administration.
Thirty minutes following buccal premedication with harmine HCl (100 mg) or placebo, the intranasal repeated-intermittent administration of DMT or placebo was initiated. Volunteers received up to 100 mg DMT in 10 mg dosing steps each 15 minutes (2 × 2 puffs per nostril) over a period of 150 minutes (except for a 30-minute break between 60 and 90 minutes due to a behavioral task). […] Volunteers could adjust each dose (0, 5, 10 mg) based on tolerance, with encouragement to follow the regimen if no adverse effects (AEs) occurred. Thus, volunteers were given the chance to control the psychedelic strength of the experience to enhance safety and tolerability.
Blood samples were collected from the left or right antecubital vein at −30 (baseline), 0, 30, 60, 90, 120, 150, 180, 195, 210, 240, 270, and 300 minutes after first DMT/placebo administration for analysis of blood plasma levels of harmine, DMT, the 3 major DMT metabolites 3-IAA, DMT-N-oxide, and NMT and the major harmine metabolite harmol. While DMT administration was ongoing, blood drawing was always performed right before DMT administration (time point -1 minute). The venous catheter was connected to a 100 mm Heidelberger plastic tube extension to collect blood samples without disturbing the volunteers during their psychedelic experience. The intravenous line was kept patent with a slow drip (10 mL/h) of heparinized saline (1000 IU heparin in 0.9 g NaCl/dL; HEPARIN Bichsel; Bichsel AG). Blood samples were immediately centrifuged for 10 minutes at 2000 RCF. Then, plasma was transferred to Eppendorf tubes, shock-frosted in liquid nitrogen (~ −196 °C) and stored at −80 °C until assay.
The data were analyzed and visualized with R Studio version 2021.09.2 + 382.[36] PK-PD parameters were computed using the R-package PKNCA.[37] For Cmax, tmax, AUCs (area under the curves), and half-life calculations, non-compartmental analyses were performed.[38] […] Post hoc pairwise comparisons were calculated using paired Wilcoxon signed-rank tests. P-values were adjusted using the Benjamini-Hochberg multiple testing correction method. Pearson or Spearman correlations were performed (as appropriate according to Shapiro-Wilk tests) to analyze associations between DMT plasma levels and subjective effects.
For the sample preparation 200 µl of plasma were spiked with 50 µl internal standard (IS) mixture (40 ng/ml DMT-d6 and harmine-d3) and 50 µl methanol (MeOH). Proteins were precipitated by adding 400 µl of acetonitrile (ACN). The samples were shaken for 10 minutes and centrifuged for 5 min at 10‘000 rpm. 350 µl of the supernatant was transferred into an auto-sampler vial, evaporated to dryness under a gentle stream of nitrogen at room temperature and reconstituted in 100 µl eluent-mixture (98:2, v/v).

In the case of `C[N+](C)([O-])CCc1c[nH]c2ccccc12` [DMT-N-oxide], the t1/2 (plasma elimination half-life) is reported as 1.2 (0.4) h and the AUCinf (plasma, time zero to infinity) is reported as 69.2 (22.1) ng × h/mL.
